# Assay results published in patent US9006450B2 (Boehringer Ingelheim International GmbH, priority 2010, dated 2015).
# Molecular target: T1, human ACC2 (Homo sapiens, UniProt O00763)
# T1 construct: made in house; host or cells: insect cells (baculoviral expression system)
# Test: ACC2 assay, spectrophotometric 384 well assay (NADH-linked, coupled lactate dehydrogenase/pyruvate kinase)
# Format: biochemical
# Conditions: ACC2 assay, hACC2 construct lacking 128 N-terminal amino acids, 25° C., 340 nm; read-out: IC50
# Procedure, shortened: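 ADP output tracked via pyruvate kinase/lactate dehydrogenase NADH oxidation, slope at 340 nm over 15 min, 25° C, with 500 μM ATP and 200 μM each acetyl-CoA and NADH. Enzyme: insect-cell-expressed human ACC2, N-terminal 128 residues deleted; pH 7.5 Tris with citrate, KHCO3. IC50 from four-parameter regression versus vehicle and no-acetyl-CoA controls.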
# T1 sequence (O00763 129-2458 limits assumed): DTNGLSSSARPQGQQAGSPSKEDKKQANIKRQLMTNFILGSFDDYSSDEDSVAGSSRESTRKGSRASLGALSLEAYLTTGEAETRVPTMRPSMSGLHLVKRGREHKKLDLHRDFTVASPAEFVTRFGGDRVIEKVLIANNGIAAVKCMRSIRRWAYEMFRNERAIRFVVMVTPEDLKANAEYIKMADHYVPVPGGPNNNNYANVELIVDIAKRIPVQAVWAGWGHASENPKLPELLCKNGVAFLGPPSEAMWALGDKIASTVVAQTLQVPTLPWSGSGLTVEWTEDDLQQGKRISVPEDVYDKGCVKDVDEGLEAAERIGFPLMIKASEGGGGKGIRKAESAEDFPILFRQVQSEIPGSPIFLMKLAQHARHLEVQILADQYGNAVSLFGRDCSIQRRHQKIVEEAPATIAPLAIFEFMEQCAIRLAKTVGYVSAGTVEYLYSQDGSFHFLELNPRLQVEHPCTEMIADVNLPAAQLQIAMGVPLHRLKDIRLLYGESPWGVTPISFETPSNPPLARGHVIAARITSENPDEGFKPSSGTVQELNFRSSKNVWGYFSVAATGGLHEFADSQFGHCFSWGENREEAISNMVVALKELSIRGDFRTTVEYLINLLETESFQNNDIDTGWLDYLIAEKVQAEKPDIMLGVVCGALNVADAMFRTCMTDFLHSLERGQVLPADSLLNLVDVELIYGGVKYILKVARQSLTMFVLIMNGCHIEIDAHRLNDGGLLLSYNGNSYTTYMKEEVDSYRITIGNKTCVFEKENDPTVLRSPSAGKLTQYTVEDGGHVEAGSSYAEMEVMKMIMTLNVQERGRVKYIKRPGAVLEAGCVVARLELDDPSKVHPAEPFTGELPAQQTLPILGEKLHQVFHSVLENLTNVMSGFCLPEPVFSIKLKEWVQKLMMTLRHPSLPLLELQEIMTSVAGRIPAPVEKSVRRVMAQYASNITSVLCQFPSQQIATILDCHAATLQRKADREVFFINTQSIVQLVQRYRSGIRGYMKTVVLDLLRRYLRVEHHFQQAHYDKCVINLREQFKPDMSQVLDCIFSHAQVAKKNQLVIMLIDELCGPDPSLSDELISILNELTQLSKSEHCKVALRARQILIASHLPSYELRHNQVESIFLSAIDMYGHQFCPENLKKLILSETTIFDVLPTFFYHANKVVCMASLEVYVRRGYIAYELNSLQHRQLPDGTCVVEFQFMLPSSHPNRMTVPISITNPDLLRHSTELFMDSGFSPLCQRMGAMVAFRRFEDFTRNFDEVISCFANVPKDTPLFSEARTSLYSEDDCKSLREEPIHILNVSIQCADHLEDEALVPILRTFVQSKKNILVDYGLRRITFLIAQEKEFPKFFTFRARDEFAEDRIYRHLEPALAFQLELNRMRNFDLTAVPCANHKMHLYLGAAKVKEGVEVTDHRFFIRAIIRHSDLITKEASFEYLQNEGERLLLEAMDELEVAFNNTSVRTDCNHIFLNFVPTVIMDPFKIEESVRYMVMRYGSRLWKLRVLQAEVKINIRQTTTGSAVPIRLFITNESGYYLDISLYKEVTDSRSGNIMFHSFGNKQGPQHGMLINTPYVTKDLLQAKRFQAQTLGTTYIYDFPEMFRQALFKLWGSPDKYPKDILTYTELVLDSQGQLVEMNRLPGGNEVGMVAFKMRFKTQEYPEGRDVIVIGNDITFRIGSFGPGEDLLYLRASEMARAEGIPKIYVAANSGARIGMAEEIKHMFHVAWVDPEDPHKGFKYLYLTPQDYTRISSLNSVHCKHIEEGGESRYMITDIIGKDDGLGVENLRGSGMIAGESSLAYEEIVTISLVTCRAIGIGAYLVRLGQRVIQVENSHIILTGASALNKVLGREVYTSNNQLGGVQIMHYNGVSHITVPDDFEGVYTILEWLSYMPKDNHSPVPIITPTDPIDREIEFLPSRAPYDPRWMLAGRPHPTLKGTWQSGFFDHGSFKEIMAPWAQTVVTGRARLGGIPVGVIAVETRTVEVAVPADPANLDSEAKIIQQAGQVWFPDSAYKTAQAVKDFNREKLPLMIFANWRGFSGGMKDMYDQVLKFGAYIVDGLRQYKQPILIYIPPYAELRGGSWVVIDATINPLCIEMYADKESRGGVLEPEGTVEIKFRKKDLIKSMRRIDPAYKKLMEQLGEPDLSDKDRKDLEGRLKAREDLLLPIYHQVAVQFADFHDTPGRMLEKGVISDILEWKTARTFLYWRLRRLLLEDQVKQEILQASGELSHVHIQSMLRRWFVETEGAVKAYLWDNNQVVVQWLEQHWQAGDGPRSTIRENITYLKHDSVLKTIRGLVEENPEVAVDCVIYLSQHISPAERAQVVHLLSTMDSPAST
row,SMILES,IC50 [µM]
1,CCOc1ccc(N2CCC(c3ccc([C@H](C)NC(=O)COC)cc3)CC2)cc1 [Example 6.15],1
2,C=CCC(=O)N[C@@H](C)c1ccc(C2CCN(c3ccc(OCC)cc3)CC2)cc1 [Example 6.16],0.57
3,CCOCC(=O)N[C@@H](C)c1ccc(C2CCN(c3ccc(OCC)cc3)CC2)cc1 [Example 6.17],1.9
4,CCOc1ccc(N2CCC(c3ccc([C@H](C)NC(=O)C4CC4C)cc3)CC2)cc1 (stereo partly drawn) [Example 6.18],1.1
5,CCOc1ccc(N2CCC(c3ccc([C@H](C)NC(=O)c4ccnnc4)cc3)CC2)cc1 [Example 6.19],1.5
6,CCOc1ccc(N2CCC(c3ccc([C@H](C)NC(=O)C4(C#N)CC4)cc3)CC2)cc1 [Example 6.20],0.67
7,CCOc1ccc(N2CCC(c3ccc([C@H](C)NC(=O)Cc4ccccc4)cc3)CC2)cc1 [Example 6.21],1.6
8,CCOc1ccc(N2CCC(c3ccc([C@H](C)NC(=O)c4ccc[nH]4)cc3)CC2)cc1 [Example 6.22],0.67
9,CCOc1ccc(N2CCC(c3ccc([C@H](C)NC(=O)C4CC4(F)F)cc3)CC2)cc1 (stereo partly drawn) [Example 6.23],0.42
10,CCOc1ccc(N2CCC(c3ccc([C@H](C)NC(=O)c4cnc[nH]4)cc3)CC2)cc1 [Example 6.24],3.9
11,CCOc1ccc(N2CCC(c3ccc([C@H](C)NC(=O)c4cnco4)cc3)CC2)cc1 [Example 6.25],0.34
12,CCOc1ccc(N2CCC(c3ccc([C@H](C)NC(=O)c4ccns4)cc3)CC2)cc1 [Example 6.26],0.28
13,CCOc1ccc(N2CCC(c3ccc([C@H](C)NC(=O)C4(C)COC4)cc3)CC2)cc1 [Example 6.27],4.8
14,CCOc1ccc(N2CCC(c3ccc([C@H](C)NC(=O)Cn4ccnc4)cc3)CC2)cc1 [Example 6.28],1.3
15,CCOc1ccc(N2CCC(c3ccc([C@H](C)NC(=O)c4cc[nH]n4)cc3)CC2)cc1 [Example 6.29],3.6
16,CCOc1ccc(N2CCC(c3ccc([C@H](C)NC(=O)CCOC)cc3)CC2)cc1 [Example 6.30],1.1
17,CCOc1ccc(N2CCC(c3ccc([C@H](C)NC(=O)c4cccnc4)cc3)CC2)cc1 [Example 6.31],2.8
18,CCOc1ccc(N2CCC(c3ccc([C@H](C)NC(=O)Cc4cccnc4)cc3)CC2)cc1 [Example 6.32],0.86
19,CCOc1ccc(N2CCC(c3ccc([C@H](C)NC(=O)c4nccs4)cc3)CC2)cc1 [Example 6.33],3.1
20,CCOc1ccc(N2CCC(c3ccc([C@H](C)NC(=O)C4(C(F)(F)F)CC4)cc3)CC2)cc1 [Example 6.34],0.25
21,CCOc1ccc(N2CCC(c3ccc([C@H](C)NC(=O)c4ncc[nH]4)cc3)CC2)cc1 [Example 6.35],7.1
22,CCOc1ccc(N2CCC(c3ccc([C@H](C)NC(=O)c4cnon4)cc3)CC2)cc1 [Example 6.36],9.1
23,CCOc1ccc(N2CCC(c3ccc([C@H](C)NC(=O)C4CC(OC)C4)cc3)CC2)cc1 (stereo partly drawn) [Example 6.37],0.76
24,CCOc1ccc(N2CCC(c3ccc([C@H](C)NC(=O)C4CC(F)C4)cc3)CC2)cc1 (stereo partly drawn) [Example 6.38],0.09
25,CCOc1ccc(N2CCC(c3ccc([C@H](C)NC(=O)CCC#N)cc3)CC2)cc1 [Example 6.39],1.3

row,SMILES,IC50 [µM]
1,CCOc1ccc(N2CCC(c3ccc([C@H](C)NC(=O)c4ccncc4)cc3)CC2)cc1 [Example 6.40],1.2
2,CCOc1ccc(N2CCC(c3ccc([C@H](C)NC(=O)c4ncn[nH]4)cc3)CC2)cc1 [Example 6.41],4.1
3,CCOc1ccc(N2CCC(c3ccc([C@H](C)NC(=O)c4cncnc4)cc3)CC2)cc1 [Example 6.42],2.8
4,CCOc1ccc(N2CCC(c3ccc([C@H](C)NC(=O)/C=N/OC)cc3)CC2)cc1 [Example 6.43],1.1
5,CCOc1ccc(N2CCC(c3ccc([C@H](C)NC(=O)C(C)(C)OC)cc3)CC2)cc1 [Example 6.44],25
6,CCOc1ccc(N2CCC(c3ccc([C@H](C)NC(=O)C4(C)CCC4)cc3)CC2)cc1 [Example 6.45],2.6
7,CCOc1ccc(N2CCC(c3ccc([C@H](C)NC(=O)c4cscn4)cc3)CC2)cc1 [Example 6.46],10.4
8,CCOc1ccc(N2CCC(c3ccc([C@H](C)NC(=O)c4cocn4)cc3)CC2)cc1 [Example 6.47],0.73
9,CCOc1ccc(N2CCC(c3ccc([C@H](C)NC(=O)CO)cc3)CC2)cc1 [Example 6.48],3.7
10,CCOc1ccc(N2CCC(c3ccc([C@H](C)NC(=O)CNC(=O)OC(C)(C)C)cc3)CC2)cc1 [Example 6.49],8.3
11,"CC(=O)N[C@@H](C)c1ccc(C2CCN(c3ccc(OC4CCOCC4)cc3)CC2)cc1 [Example 7.1, (S)—N-[1-(4-{1-[4-(Tetrahydro-2H-pyran-4-yloxy)-phenyl]-piperidin-4-yl}-phenyl)-ethyl]-acetamide]",0.58
12,CC(=O)N[C@@H](C)c1ccc(C2CCN(c3cccc(OC4CCOCC4)c3)CC2)cc1 [Example 7.2],0.19
13,CCOCCOc1ccc(N2CCC(c3ccc([C@H](C)NC(C)=O)cc3)CC2)cc1 [Example 8.1],0.44
14,CCOCCOc1cccc(N2CCC(c3ccc([C@H](C)NC(C)=O)cc3)CC2)c1 [Example 8.2],0.3
15,CC(=O)N[C@@H](C)c1ccc(C2CCN(c3cccc(OCC4CC4)c3)CC2)cc1 [Example 8.3],0.2
16,CC(=O)N[C@@H](C)c1ccc(C2CCN(c3cccc(OCC(C)C)c3)CC2)cc1 [Example 8.4],0.4
17,CC(=O)N[C@@H](C)c1ccc(C2CCN(c3cccc(OC4CCCC4)c3)CC2)cc1 [Example 8.5],0.22
18,CCCCOc1cccc(N2CCC(c3ccc([C@H](C)NC(C)=O)cc3)CC2)c1 [Example 8.6],0.33
19,CC(=O)N[C@@H](C)c1ccc(C2CCN(c3cccc(OC(C)C)c3)CC2)cc1 [Example 8.7],0.16
20,CCCOc1cnc(N2CCC(c3ccc([C@H](C)NC(C)=O)cc3)CC2)cn1 [Example 8.8],0.29
21,CC(=O)N[C@@H](C)c1ccc(C2CCN(c3ccc(OC4COC4)cc3)CC2)cc1 [Example 8.9],0.6
22,CCOC(=O)C1(Oc2ccc(N3CCC(c4ccc([C@H](C)NC(C)=O)cc4)CC3)cc2)CCC1 [Example 8.10],0.1
23,CC(=O)N[C@@H](C)c1ccc(C2CCN(c3ccc(OC4CCC4)c(C)c3)CC2)cc1 [Example 8.11],1.8
24,CC(=O)N[C@@H](C)c1ccc(C2CCN(c3ccc(OC4CCC4)c(C#N)c3)CC2)cc1 [Example 8.12],2.3
25,CC(=O)N[C@@H](C)c1ccc(C2CCN(c3ccc(OC4CCC4)c(F)c3)CC2)cc1 [Example 8.13],0.11

row,SMILES,IC50 [µM]
1,CC(=O)N[C@@H](C)c1ccc(C2CCN(c3ccc(OC4CCC4)c(Cl)c3)CC2)cc1 [Example 8.14],0.13
2,CCOc1ccc(N2CCC(c3ccc([C@H](C)NC(C)=O)cc3)CC2)cc1C [Example 8.15],0.83
3,CCOc1ccc(N2CCC(c3ccc([C@H](C)NC(C)=O)cc3)CC2)cc1C#N [Example 8.16],5.6
4,CCOc1ccc(N2CCC(c3ccc([C@H](C)NC(C)=O)cc3)CC2)cc1F [Example 8.17],0.29
5,CCOc1ccc(N2CCC(c3ccc([C@H](C)NC(C)=O)cc3)CC2)cc1OC [Example 8.18],2.7
6,COCCOc1ccc(N2CCC(c3ccc([C@H](C)NC(C)=O)cc3)CC2)cc1C [Example 8.19],6
7,COCCOc1ccc(N2CCC(c3ccc([C@H](C)NC(C)=O)cc3)CC2)cc1C#N [Example 8.20],12
8,COCCOc1ccc(N2CCC(c3ccc([C@H](C)NC(C)=O)cc3)CC2)cc1F [Example 8.21],1.5
9,COCCOc1ccc(N2CCC(c3ccc([C@H](C)NC(C)=O)cc3)CC2)cc1OC [Example 8.22],14.6
10,CC(=O)N[C@@H](C)c1ccc(C2CCN(c3ccc(OC(C)C)c(C)c3)CC2)cc1 [Example 8.23],0.57
11,CC(=O)N[C@@H](C)c1ccc(C2CCN(c3ccc(OC(C)C)c(C#N)c3)CC2)cc1 [Example 8.24],12.4
12,CC(=O)N[C@@H](C)c1ccc(C2CCN(c3ccc(OC(C)C)c(Cl)c3)CC2)cc1 [Example 8.25],0.71
13,CC(=O)N[C@@H](C)c1ccc(C2CCN(c3ccc(OCC(C)C)c(C)c3)CC2)cc1 [Example 8.26],0.84
14,CC(=O)N[C@@H](C)c1ccc(C2CCN(c3ccc(OCC(C)C)c(C#N)c3)CC2)cc1 [Example 8.27],2.6
15,CC(=O)N[C@@H](C)c1ccc(C2CCN(c3ccc(OCC(C)C)c(F)c3)CC2)cc1 [Example 8.28],0.15
16,COc1cc(N2CCC(c3ccc([C@H](C)NC(C)=O)cc3)CC2)ccc1OCC(C)C [Example 8.29],0.89
17,CC(=O)N[C@@H](C)c1ccc(C2CCN(c3ccc(OCC(C)C)c(Cl)c3)CC2)cc1 [Example 8.30],0.16
18,CCCOc1ccc(N2CCC(c3ccc([C@H](C)NC(C)=O)cc3)CC2)cc1C [Example 8.31],1.2
19,CCCOc1ccc(N2CCC(c3ccc([C@H](C)NC(C)=O)cc3)CC2)cc1C#N [Example 8.32],3.2
20,CCCOc1ccc(N2CCC(c3ccc([C@H](C)NC(C)=O)cc3)CC2)cc1OC [Example 8.33],3.5
21,CCCOc1ccc(N2CCC(c3ccc([C@H](C)NC(C)=O)cc3)CC2)cc1Cl [Example 8.34],0.26
22,CC(=O)N[C@@H](C)c1ccc(C2CCN(c3ccc(OC4CCCC4)c(C)c3)CC2)cc1 [Example 8.35],0.49
23,CC(=O)N[C@@H](C)c1ccc(C2CCN(c3ccc(OC4CCCC4)c(C#N)c3)CC2)cc1 [Example 8.36],2.2
24,CC(=O)N[C@@H](C)c1ccc(C2CCN(c3ccc(OC4CCCC4)c(F)c3)CC2)cc1 [Example 8.37],0.66
25,COc1cc(N2CCC(c3ccc([C@H](C)NC(C)=O)cc3)CC2)ccc1OC1CCCC1 [Example 8.38],1.2
